Reference: patent US20200354327A1, “COMPOUND HAVING STAT3 INHIBITORY ACTIVITY AND USE THEREOF” (CYTUS H&B CO., LTD., priority 2017, published 2020)

Tests used:
MDA-MB-231 cells [1] = assay: Cell proliferation assay, MDA-MB-231; type: cell-based, human; conditions: MDA-MB-231, by time period, versus DMSO
Protocol: Cell proliferation assay was performed as previously described (Won C, et al. Anticancer Res. 30, 481-488 (2010)). In order to analyze the cell proliferation rate, U87-MG and MDA-MB-231 cell lines were dispensed into a 6-well culture dish, then treated with DMSO and ODZ10117 the next day, and stained with crystal violet after 0 h, 24 h, 48 h, and 72 h, and the number of live cells was calculated using a hemocytometer.

MDA-MB-231 cells [2] = assay: Human tumor cell xenograft, MDA-MB-231; type: in vivo, BALB/c nude mice; conditions: MDA-MB-231 xenograft, injected directly into the tumor, versus DMSO
Protocol: (§1) Male Nude Mouse (BALB/cAnNCrj-nu/nu) was purchased from Charles River Japan Inc. (Shin-Yokohama, Japan). The mouse was bred in a clean room in which the temperature and humidity were constantly controlled. The breeding process was carried out according to the method described in the manual for maintenance of laboratory animals in Seoul National University. U87-MG cells or MDA-MB-231 cells were diluted with PBS, suspended in 100 μl of Matrigel at 25% concentration, and injected into the back of mouse and bred for 6 to 10 weeks. Human tumor growth was measured every other day using a vernier caliper from 2 weeks after cell injection. With regard to the degree of inhibition of human tumor cell formation, 40 μM of ODZ10117 was directly injected into the human tumor on days 0, 3, and 5 from week 4 of tumor cell injection. On the 7th day, the mouse was sacrificed to separate the tumor, and the tumor cell inhibitory efficacy of the drug was measured by being compared with that of the control group treated with 1% DMSO.

STAT3 [3] = biological target: T1, STAT3 (Homo sapiens, UniProt P40763); assay: Western blot in human malignant breast cancer cell lines; type: cell-based; set-up: endogenous in cells; host or cells: L540, HDLM-2, U87-MG, MDA-MB-231, further human glioblastoma and breast cancer lines
T1 sequence (P40763 whole entry): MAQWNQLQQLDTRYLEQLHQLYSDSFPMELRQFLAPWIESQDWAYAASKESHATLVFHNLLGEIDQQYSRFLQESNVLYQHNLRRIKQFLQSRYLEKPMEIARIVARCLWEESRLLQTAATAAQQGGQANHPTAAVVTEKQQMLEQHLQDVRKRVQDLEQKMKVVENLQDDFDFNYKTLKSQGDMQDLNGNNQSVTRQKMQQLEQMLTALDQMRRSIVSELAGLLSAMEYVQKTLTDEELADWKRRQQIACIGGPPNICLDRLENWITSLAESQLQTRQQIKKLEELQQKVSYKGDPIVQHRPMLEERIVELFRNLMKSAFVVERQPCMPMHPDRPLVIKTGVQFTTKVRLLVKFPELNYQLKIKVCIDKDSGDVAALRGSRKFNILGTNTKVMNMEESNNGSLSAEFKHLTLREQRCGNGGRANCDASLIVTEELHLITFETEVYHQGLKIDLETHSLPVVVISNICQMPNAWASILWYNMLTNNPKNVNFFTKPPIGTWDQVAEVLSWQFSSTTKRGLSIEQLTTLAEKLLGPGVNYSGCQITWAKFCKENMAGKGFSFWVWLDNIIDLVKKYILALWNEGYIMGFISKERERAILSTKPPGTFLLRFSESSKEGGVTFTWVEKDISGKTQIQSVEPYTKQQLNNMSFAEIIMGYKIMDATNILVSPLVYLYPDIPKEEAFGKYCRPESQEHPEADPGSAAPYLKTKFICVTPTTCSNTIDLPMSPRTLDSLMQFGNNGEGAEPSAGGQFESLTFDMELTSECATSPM
Protocol: (§2) Western blot analysis was performed (Jung J E, et al. FASEB J. 19, 1296-1298 (2005)). The cells were washed two times with PBS and suspended in the lysate (50 mM Tris-HCl, pH 7.4, 350 mM NaCl, 1% Triton X-100, 0.5% Nonidet P-40, 10% glycerol, 0.1% SDS, 1 mM EDTA, 1 mM EGTA, 1 mM Na3VO4, 1 mM PMSF, protease and phosphorylation inhibitor) and the cell membrane and nuclear membrane were crushed to lyse the cells. The insoluble protein fraction was removed by centrifugation, and the supernatant was mixed with SDS electrophoresis buffer and electrophoresis (SDS-PAGE) was performed to detect the protein with the desired antibody and to confirm the protein expression level.

MDA-MB-231 cells [4] = assay: Matrigel invasion assay, MDA-MB-231; type: cell-based, human; conditions: MDA-MB-231, 24 hours, versus DMSO
Protocol: The growth factor-reduced Matrigel was diluted with a serum-free culture solution at a 1:3 ratio, transferred to a 24-well plate, and solidified at 37° C. for 5 hours. The cells were placed in a culture solution containing 1% serum and added to the solidified Matrigel, 600 μl of a culture solution containing 10% serum to which fibronectin was added at a concentration of […] was added thereto, and the cells were cultured for 24 hours. Thereafter, the cells were fixed and stained by adding Diffquick solution thereto and then observed under a Leica Application Suite microscope, and images were taken.

U87-MG cells [5] = assay: Wound healing assay, U87-MG; type: cell-based, human; conditions: 24 hours
Protocol: Wound healing assay was performed as previously described (Jung J E, et al. FASEB J. 19, 1296-1298 (2005)). The respective cells were dispensed into a 12-well plate (U87-MG: 5×10^5 cells/ml; MDA-MB-231: 3×10^5 cells/ml) and cultured until the cells proliferated 90% or more. Cells scraped off from the plate with the tip of the pipette were washed two times with PBS. After 24 hours, the proliferation (invasion) of cells at the part from which the cells were had been removed was observed under a microscope, and images were taken.

U87-MG cells [6] = assay: Human tumor cell xenograft, U87-MG; type: in vivo, BALB/c nude mice; conditions: injected directly into the tumor, versus DMSO
Protocol: as §1

STAT3 [7] = biological target: T1, STAT3; assay: Western blot in STAT3-phosphorylated human malignant glioblastoma; type: cell-based; set-up: endogenous in cells; host or cells: L540, HDLM-2, U87-MG, MDA-MB-231, further human glioblastoma and breast cancer lines
Protocol: as §2

STAT3 [8] = biological target: T1, STAT3; assay: Western blot in U87-MG and MDA-MB-231 cells; type: cell-based; set-up: endogenous in cells; host or cells: L540, HDLM-2, U87-MG, MDA-MB-231, further human glioblastoma and breast cancer lines
Protocol: The human cancer cell lines used in the experiment were U87-MG (human malignant glioblastoma) and MDA-MB-231 (human malignant breast cancer) cell lines, and various kinds of human-derived blood and solid cancer cells including these human cancer cell lines were cultured as previously described (Jung J E, et al. FASEB J. 19, 1296-1298 (2005)). The human Hodgkin lymphoma cancer cell lines L540 and HLDM-2 used in the experiment were obtained from the German Collection of Microorganism and Cell Cultures (DSMZ, Germany) and cultured using RPMI 1640 medium containing 20% FBS in a 5% CO2 incubator at a temperature of 37° C.
as §2

MMP-2 = assay: Activity of MMP-2 in U87-MG and MDA-MB-231 cells; type: cell-based, human; conditions: U87-MG and MDA-MB-231, 24 hours

With `Clc1ccc(OCc2noc(C(Cl)(Cl)Cl)n2)c(Cl)c1` [ODZ10117, 3-(2,4-dichloro-phenoxymethyl)-5-trichloromethyl-[1,2,4]oxadiazole] the cell proliferation (MDA-MB-231 cells [1]) was “effectively inhibited the proliferation of the two cell lines”, the tumor growth (MDA-MB-231 cells [2]) was “significantly inhibited tumor growth” and the “STAT3 inhibitory efficacy compared with napabucasin” value (STAT3 [3]) was “STAT3 inhibitory efficacy similar to that of napabucasin at high concentrations”. For the same molecule, the “phosphorylation of tyrosine 705 of STAT3” value (STAT3 [3]) was “inhibited the phosphorylation of tyrosine 705 of STAT3 in human malignant breast cancer cell lines in a concentration-dependent manner”, the “time to complete inhibition of phosphorylation of STAT3 after treatment” value (STAT3 [3]) was at most 2 h and the “STAT3 inhibitory efficacy compared with known inhibitors” value (STAT3 [3]; versus NSC628869 and NSC74859) was “superior STAT3 inhibitory efficacy to NSC628869 and NSC74859”. For the same molecule, the cell invasion (MDA-MB-231 cells [4]) was “significantly decreased cell invasion in both the two cell lines”, the cell migration (U87-MG cells [5]) was “significantly inhibited the migration of these cells” and the tumor growth (U87-MG cells [6]) was “significantly inhibited tumor growth”. For the same molecule, the “phosphorylation of tyrosine 705 of STAT3” value (STAT3 [7]) was “inhibited the phosphorylation of tyrosine 705 of STAT3 in STAT3-phosphorylated human malignant glioblastoma in a concentration-dependent manner”, the “time to complete inhibition of phosphorylation of STAT3 after treatment” value (STAT3 [7]) was at most 2 h and the “STAT3 inhibitory efficacy compared with known inhibitors” value (STAT3 [7]; versus NSC628869 and NSC74859) was “superior STAT3 inhibitory efficacy to NSC628869 and NSC74859”. For the same molecule, the “phosphorylation of tyrosine 705 and serine 727 residues of STAT3” value (STAT3 [8]) was “significantly inhibited phosphorylation of tyrosine 705 and serine 727 residues of STAT3” and the “activity of MMP-2” value (MMP-2) was “significantly decreased”.
